Where “and” joins values, the source holds several entries; their conditions need not be identical. Equal values may be shown once. Read-outs that look alike come from different tables or passages of the source.
What was measured:
[1] = tested on: SJSA-1 cells; assay: MTT proliferation assay, SJSA-1; format: cell-based, human; details: for Mean Abs (±SD): 72 hours
[2] = tested on: endogenous STAT3; assay: Immunoprecipitation from cell lines with constitutively activated STAT3; format: binding, human (PANC-1 and DU145) and murine (4T1)
Description: Commercial HeLa cells were also treated with interferon gamma (INFΓ) in order to induce phosphorylated STAT3. The PC-3 STAT3 null cell line was used as a negative control.
The cells were grown to 50% to 70% confluence, then disrupted in freshly prepared ice-cold lysis buffer as described above for 45 minutes on ice. Lysates were then centrifuged, the supernatant collected, and protein concentration was determined as described above. […] Beads were then washed. Following the final wash, 60 μl of lysis buffer was added, and the resulting supernatant was subject to Western Blot analysis as described in Example 2.

[3] = tested on: MDA-MB 231 cells; assay: Internalization of sdAb, anti-His staining, MDA-MB 231; format: cell-based; details: 18 hours after sdAb addition
Description: The next day, the chambers were rinsed with fresh media and STAT3 VHH13 (SEQ ID NO:3) sdAb (diluted 1:10 in media) or TNF-α VHH66 (SEQ ID NO:45) sdAb was added to the chamber. An anti-HIV-1 Reverse Transcriptase (RT) sdAb was used as a negative control.
The slides were incubated for 18 hours after sdAb addition. The chambers were briefly rinsed with media and fixed in ice-cold methanol for 5-10 min. The chambers were then dried and stained with a fluorescent anti-His tag antibody (1:200) (Novus Biologicals, Littleton, Colo.) for 45 min at room temperature. The slides were rinsed in PBS for 5 minutes and mounted.

[4] = tested on: PANC-1 xenograft; details: for Tumor Measurements (mm^3), group Mean / Individual Tumor Measurements (mm^3): Group 2: 500 μg/kg bw IP QD×14; for Individual Tumor Measurements (mm^3): single animals, listed as anti-STAT3 bacterial VHH13
[5] = tested on: STAT5; assay: Biacore 3000 protein binding, STAT5
[6] = tested on: DU145 cells; assay: MTT proliferation assay, DU145; format: cell-based, human; details: 50 μg, single experiments, listed as Anti-STAT3 Bacterial VHH13
[7] = tested on: SJSA-1 xenograft; assay: SJSA-1 Bone Osteosarcoma subcutaneous xenograft model
[8] = SBT-100 5.0 mg/kg BID 14 days IP, Doxorubicin 7.0 mg/kg days 1, 8 and 14 IP
[9] = study day 9 post implant, IP, SBT-100 5.0 mg/kg BIDx14 and/or Doxorubicin 7.0 mg/kg days 1, 8, 14
[10] = study day 13 post implant, IP, SBT-100 5.0 mg/kg BIDx14 and/or Doxorubicin 7.0 mg/kg days 1, 8, 14

## anti-STAT3 VHH13: anti-STAT3 single-domain antibody, SEQ ID NO:3; bacterially produced, referred to as SBT-100
[1]; SJSA, 72 hr
  IC50: IC50 = 51 μg/ml
[1]; Table 72 (experiment 5a), SBT-100 3.13 μg/ml alone
  Mean Abs (±SD): 0.278 ± 0.057
[1]; Table 72 (experiment 5a), SBT-100 6.25 μg/ml alone
  Mean Abs (±SD): 0.258 ± 0.097
[1]; Table 72 (experiment 5a), SBT-100 25 μg/ml alone
  Mean Abs (±SD): 0.221 ± 0.034
[1]; Table 72 (experiment 5a), SBT-100 50 μg/ml alone
  Mean Abs (±SD): 0.066 ± 0.003
[1]; Table 72 (experiment 5a), SBT-100 100 μg/ml alone
  Mean Abs (±SD): 0.058 ± 0.002
[1]; Table 73 (Experiment 2, 5b), SBT-100 3.13 μg/ml alone
  Mean Abs (±SD): 0.774 ± 0.068
[1]; Table 73 (Experiment 2, 5b), SBT-100 6.25 μg/ml alone
  Mean Abs (±SD): 0.835 ± 0.058
[1]; Table 73 (Experiment 2, 5b), SBT-100 25 μg/ml alone
  Mean Abs (±SD): 0.781 ± 0.057
[1]; Table 73 (Experiment 2, 5b), SBT-100 50 μg/ml alone
  Mean Abs (±SD): 0.460 ± 0.038
[1]; Table 73 (Experiment 2, 5b), SBT-100 100 μg/ml alone
  Mean Abs (±SD): 0.091 ± 0.002
[2]; HeLa lysate (interferon gamma treated)
  binding to Phospho-STAT3: bound
[2]; PANC-1, DU145 and 4T1 lysates
  immunoprecipitation of endogenous STAT3: immunoprecipitated
[2]; PC-3 (negative control)
  immunoprecipitation in STAT3 null cell line: No bands
[3]
  staining with fluorescent anti-His tag antibody: positive cytoplasmic staining
[4]; 500 μg/kg bw IP QD×14
  growth inhibition: no significant growth inhibition
  mean tumor size (±SE) on day 14 of dosing: 318.74 ± 29.76
[4]; 500 μg/kg bw IP QD×14, control […] days
  tumor doubling time: 23.02 days
[4]; 2/19
  Tumor Measurements (mm^3), group Mean: 110.58 mm^3
  Individual Tumor Measurements (mm^3): 96.31 mm^3 and 89.24 mm^3 and 80.62 mm^3 and 108.03 mm^3 and 77.66 mm^3 and 129.68 mm^3 and 108.99 mm^3 and 123.27 mm^3 and 144.53 mm^3 and 120.96 mm^3 and 112.69 mm^3 and 134.95 mm^3
[4]; 2/24
  Tumor Measurements (mm^3), group Mean: 149.71 mm^3
  Individual Tumor Measurements (mm^3): 193.71 mm^3 and 90.03 mm^3 and 148.97 mm^3 and 144.14 mm^3 and 116.21 mm^3 and 143.20 mm^3 and 182.30 mm^3 and 171.03 mm^3 and 136.03 mm^3 and 136.48 mm^3 and 144.76 mm^3 and 189.64 mm^3
[4]; 2/27
  Tumor Measurements (mm^3), group Mean: 222.47 mm^3
  Individual Tumor Measurements (mm^3): 275.06 mm^3 and 112.43 mm^3 and 196.38 mm^3 and 234.46 mm^3 and 313.19 mm^3 and 290.67 mm^3 and 239.00 mm^3 and 223.34 mm^3 and 198.47 mm^3 and 226.43 mm^3 and 167.12 mm^3 and 193.14 mm^3
[4]; 3/2
  Tumor Measurements (mm^3), group Mean: 242.11 mm^3
  Individual Tumor Measurements (mm^3): 317.53 mm^3 and 125.51 mm^3 and 187.24 mm^3 and 240.39 mm^3 and 290.38 mm^3 and 224.92 mm^3 and 254.64 mm^3 and 226.88 mm^3 and 226.04 mm^3 and 338.06 mm^3 and 225.70 mm^3 and 248.01 mm^3
[4]; 3/6
  Tumor Measurements (mm^3), group Mean: 318.74 mm^3
  Individual Tumor Measurements (mm^3): 395.37 mm^3 and 189.63 mm^3 and 299.84 mm^3 and 288.75 mm^3 and 411.66 mm^3 and 261.44 mm^3 and 342.19 mm^3 and 248.69 mm^3 and 247.97 mm^3 and 564.71 mm^3 and 223.06 mm^3 and 351.63 mm^3
[4]; 3/10
  Tumor Measurements (mm^3), group Mean: 408.74 mm^3
  Individual Tumor Measurements (mm^3): 540.66 mm^3 and 235.08 mm^3 and 530.46 mm^3 and 421.61 mm^3 and 197.67 mm^3 and 343.04 mm^3 and 464.00 mm^3 and 324.30 mm^3 and 273.58 mm^3 and 883.81 mm^3 and 326.19 mm^3 and 364.44 mm^3
[4]; SBT-100 5 mg/kg bw i.p. BID×14
  % treatment/control: 52.79%
  mean tumor size (±S.E.) at termination (day 28): 203.02±30.34
  mean tumor size (±SE) at last day of dosing (Day 14): 159.03±28.01
[4]; SBT-100 5 mg/kg bw i.p. BID×14, control 18.51 days
  tumor doubling time: 35.70 days
[4]; SBT-100 5 mg/kg bw i.p. BID×14, p=0.35
  mean tumor growth inhibition at the end of the study: 41.78%
[5]; Biacore 3000, sdAb immobilized
  binding to STAT5: bound
[5]; Table 50, sdAb immobilized as ligand, analyte STAT5 protein 500 nM
  Result (binding): Binding
[6]
  Absorbance: 0.68 and 1.2
[7]; [8]
  % T/C: 69.91%
  mean tumor growth inhibition at the end of the study: 25.23%
  mean tumor size (±S.E.) at termination: 1055.68±307.10
  mean tumor size (±SE) at the last day of dosing: 334.52±114.62
[7]; SJSA-1 xenograft
  mean tumor size compared to control: non-significant decrease in mean tumor size
[7]; control 8.22
  tumor doubling time: 8.84
[7]; [9]
  % Inh Mean: 21.06%
  % Inh Med: 11.92%
  Mean Abs (tumor measurement): 31.31 mm^3
  Median Abs (tumor measurement): 19.98 mm^3
  Tumor Measurements, single animals: 15.75 mm^3 and 19.98 mm^3 and 0.00 mm^3 and 69.47 mm^3 and 10.46 mm^3 and 79.76 mm^3 and 23.77 mm^3
[7]; [10]
  % Inh Mean: −45.34%
  % Inh Med: −44.59%

— US11370847B2, “Single domain antibodies directed against intracellular antigens” (Singh Biotechnology, LLC, priority 2014, dated 2022)
